Structures are written as SMILES.

T1 sequence (O14744 with tags, fused parts or gaps): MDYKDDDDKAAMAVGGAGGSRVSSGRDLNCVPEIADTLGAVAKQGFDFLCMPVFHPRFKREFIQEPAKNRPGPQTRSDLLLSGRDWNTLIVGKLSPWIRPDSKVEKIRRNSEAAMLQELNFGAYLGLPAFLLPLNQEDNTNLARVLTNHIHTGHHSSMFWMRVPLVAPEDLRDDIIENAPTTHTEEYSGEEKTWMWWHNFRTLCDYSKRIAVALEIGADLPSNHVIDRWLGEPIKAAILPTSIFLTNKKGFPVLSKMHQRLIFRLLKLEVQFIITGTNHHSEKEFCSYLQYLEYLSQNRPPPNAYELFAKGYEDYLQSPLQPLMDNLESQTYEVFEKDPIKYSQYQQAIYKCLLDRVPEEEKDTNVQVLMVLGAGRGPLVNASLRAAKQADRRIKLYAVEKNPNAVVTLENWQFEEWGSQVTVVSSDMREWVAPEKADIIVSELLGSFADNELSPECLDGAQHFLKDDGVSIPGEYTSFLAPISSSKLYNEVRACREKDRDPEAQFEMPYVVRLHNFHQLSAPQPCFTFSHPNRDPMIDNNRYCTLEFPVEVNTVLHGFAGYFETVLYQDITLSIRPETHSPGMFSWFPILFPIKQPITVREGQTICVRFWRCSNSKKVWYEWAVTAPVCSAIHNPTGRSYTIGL
T1 sequence (Q9BQA1 with tags, fused parts or gaps partner limits assumed): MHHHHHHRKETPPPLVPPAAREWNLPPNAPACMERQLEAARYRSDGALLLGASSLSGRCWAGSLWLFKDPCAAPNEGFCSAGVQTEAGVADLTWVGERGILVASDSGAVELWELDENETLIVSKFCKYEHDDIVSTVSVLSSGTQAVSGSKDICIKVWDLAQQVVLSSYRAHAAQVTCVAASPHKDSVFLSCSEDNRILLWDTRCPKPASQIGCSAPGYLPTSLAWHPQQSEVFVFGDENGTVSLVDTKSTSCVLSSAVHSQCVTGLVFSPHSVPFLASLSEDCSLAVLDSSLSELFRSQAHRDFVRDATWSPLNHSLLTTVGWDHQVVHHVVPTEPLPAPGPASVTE

The assay has as its target T1, PRMT5/MEP50 (Homo sapiens, UniProt O14744).
T1 construct: Flag-PRMT5; made in house; host or cells: Spodoptera frugiperda (SF9), baculovirus
Briefly: PRMT5 Biochemical Assay (PRMT5/MEP50 enzyme assay on histone H4 peptide substrate, 3H-SAM Flashplate). Conditions: PRMT5 biochemical assay; read-out: Biochemical IC50. The source says:
S-adenosylmethionine (SAM), S-adenosylhomocysteine (SAH), bicine, KCl, Tween20, dimethylsulfoxide (DMSO), bovine skin gelatin (BSG), and Tris(2-carboxyethyl)phosphine hydrochloride solution (TCEP) were purchased from Sigma-Aldrich at the highest level of purity possible. ^3H-SAM was purchase from American Radiolabeled Chemicals with a specific activity of 80 Ci/mmol. 384-well streptavidin Flashplates were purchased from PerkinElmer.
Peptide representative of human histone H4 residues 1-15 was synthesized with a C-terminal linker-affinity tag motif and a C-terminal amide cap by 21st Century Biochemicals.
The amplified genes were sublconed into pENTR/D/TEV (Life Technologies) and subsequently transferred by Gateway™ attL×attR recombination to pDEST8 baculvirus expression vector (Life Technologies).
Protein over-expression was accomplished by infecting exponentially growing Spodoptera frugiperda (SF9) cell culture at 1.2×10^6 cell/ml with a 5000 fold dilution of BIIC stock. Infections were carried out at 27° C. for 72 hours, harvested by centrifugation, and stored at −80° C. for purification.
Flag-PRMT5/6His-MeP50 was eluted with 300 mM Imidazole in the same buffer.
General Procedure for PRMT5/MEP50 Enzyme Assays on Peptide Substrates.
The assays were all performed in a buffer consisting of 20 mM Bicine (pH=7.6), 1 mM TCEP, 0.005% BSG, and 0.002% Tween20, prepared on the day of use. […] DMSO (1 ul) was added to Columns 11, 12, 23, 24, rows A-H for the maximum signal control and 1 ul of SAH, a known product and inhibitor of PRMT5/MEP50, was added to columns 11, 12, 23, 24, rows I-P for the minimum signal control. A cocktail (40 ul) containing the PRMT5/MEP50 enzyme and the peptide was added by Multidrop Combi (Thermo-Fisher). The compounds were allowed to incubate with PRMT5/MEP50 for 30 min at 25 degrees Celsius, then a cocktail (10 ul) containing ^3H-SAM was added to initiate the reaction (final volume=51 ul). […] The assays were stopped by the addition of non-radioactive SAM (10 ul) to a final concentration of 600 uM, which dilutes the ^3H-SAM to a level where its incorporation into the peptide substrate is no longer detectable. 50 ul of the reaction in the 384-well polypropylene plate was then transferred to a 384-well Flashplate and the biotinylated peptides were allowed to bind to the streptavidin surface for at least 1 hour before being washed three times with 0.1% Tween20 in a Biotek ELx405 plate washer. The plates were then read in a PerkinElmer TopCount plate reader to measure the quantity of ^3H-labeled peptide bound to the Flashplate surface, measured as disintegrations per minute (dpm) or alternatively, referred to as counts per minute (cpm).
Where dpm=disintegrations per minute, cmpd=signal in assay well, and min and max are the respective minimum and maximum signal controls.
Where top and bottom are the normally allowed to float, but may be fixed at 100 or 0 respectively in a 3-parameter fit. The Hill Coefficient normally allowed to float but may also be fixed at 1 in a 3-parameter fit. Y is the % inhibition and X is the compound concentration.
Turning to `CN(CCNCc1ccccc1)C[C@H]1O[C@@H](n2cnc3c(N)ncnc32)[C@H](O)[C@@H]1O` [Compound 12-1], the IC50 fell in the range of 101 to 1000 nM.
The result for `CN(CCNCc1ccc(Cl)c(Cl)c1)C[C@H]1O[C@@H](n2cnc3c(N)ncnc32)[C@H](O)[C@@H]1O` [Compound 13-1] reads 101 to 1000 nM; that for `O=C(CC1NC(N2CCc3ccccc3C2)=NC1=O)Nc1ccccc1` (centres unmarked) [Compound 13-14], 1000 to 10000 nM; that for `CN(CCNCc1ccco1)C[C@H]1O[C@@H](n2cnc3c(N)ncnc32)[C@H](O)[C@@H]1O` [Compound 14-1], 101 to 1000 nM.
The figure for `CCN1CCN(C2=NC(=O)C(CC(=O)Nc3ccc(C(C)=O)cc3)N2)CC1` (centres unmarked) [Compound 14-14] is 1000 to 10000 nM.
The result for `CN(CCNCc1ccccc1F)C[C@H]1O[C@@H](n2cnc3c(N)ncnc32)[C@H](O)[C@@H]1O` [Compound 15-1] reads less than 100 nM; that for `CCOc1ccc(NC(=O)CC2NC(N3CCN(c4ccccc4F)CC3)=NC2=O)cc1` (centres unmarked) [Compound 15-14], 1000 to 10000 nM.
Regarding `CN(CCNCc1ccc(F)cc1)C[C@H]1O[C@@H](n2cnc3c(N)ncnc32)[C@H](O)[C@@H]1O` [Compound 16-1], the IC50 was less than 100 nM.
Regarding `CC(C)c1ccc(NC(=O)CC2NC(N3CCN(c4ccccn4)CC3)=NC2=O)cc1` (centres unmarked) [Compound 16-14], the IC50 lay within 1000 to 10000 nM.
On to `CCN(CCN(C)C[C@H]1O[C@@H](n2cnc3c(N)ncnc32)[C@H](O)[C@@H]1O)Cc1ccncc1` [Compound 17-1], for which the IC50 is less than 100 nM.
The result for `CCOC(=O)c1ccc(NC(=O)CC2NC(N3CCN(c4ccccn4)CC3)=NC2=O)cc1` (centres unmarked) [Compound 17-14] reads 1000 to 10000 nM.
Consider `CC(NCCN(C)C[C@H]1O[C@@H](n2cnc3c(N)ncnc32)[C@H](O)[C@@H]1O)c1ccc(Br)cc1` (some centres unmarked) [Compound 18-1], for which the IC50 was less than 100 nM.
In the case of `O=C(CC1NC(N2CCN(c3ccccc3)CC2)=NC1=O)Nc1ccccc1` (centres unmarked) [Compound 18-14], the IC50 lay within 1000 to 10000 nM.
Consider `CN(CCNCc1ccc(Cl)cc1F)C[C@H]1O[C@@H](n2cnc3c(N)ncnc32)[C@H](O)[C@@H]1O` [Compound 19-1], for which the IC50 lay in the range of 101 to 1000 nM.
Take `CCc1ccc(NC(=O)CC2NC(N3CCN(CC)CC3)=NC2=O)cc1` (centres unmarked) [Compound 19-14]: the 50% inhibitory concentration (IC50) was in the range of 1000 to 10000 nM.
As for `COc1cccc(CN(C)CCN(C)C[C@H]2O[C@@H](n3cnc4c(N)ncnc43)[C@H](O)[C@@H]2O)c1` [Compound 20-1], the IC50 fell in the range of 101 to 1000 nM.
The result for `COc1ccc(N2CCN(C3=NC(=O)C(CC(=O)Nc4ccc(C(C)=O)cc4)N3)CC2)cc1` (centres unmarked) [Compound 21-14] reads 1000 to 10000 nM; that for `CC(N)CCN(C)C[C@H]1O[C@@H](n2cnc3c(N)ncnc32)[C@H](O)[C@@H]1O` (some centres unmarked) [Compound 22-1], 101 to 1000 nM; that for `NCCCN(CC[C@H](N)C(=O)O)C[C@H]1O[C@@H](n2cnc3c(N)ncnc32)[C@H](O)[C@@H]1O` [Compound 23-1], less than 100 nM.
The figure for `Cc1ccc(NC(=O)CC2NC(N3CCc4ccccc4C3)=NC2=O)cc1` (centres unmarked) [Compound 23-14] is 1000 to 10000 nM; for `NCCCCN(CC[C@H](N)C(=O)O)C[C@H]1O[C@@H](n2cnc3c(N)ncnc32)[C@H](O)[C@@H]1O` [Compound 24-1] it is less than 100 nM; for `CCOC(=O)c1ccc(NC(=O)CC2NC(N3CCN(C)CC3)=NC2=O)cc1` (centres unmarked) [Compound 24-14] it is 10000 to 50000 nM.
For `CC(C)N(CCCN)C[C@H]1O[C@@H](n2cnc3c(N)ncnc32)[C@H](O)[C@@H]1O` [Compound 25-1], the IC50 fell in the range of 101 to 1000 nM.
The result for `COc1ccc(N2CCN(C3=NC(=O)C(CC(=O)Nc4ccccc4)N3)CC2)cc1` (centres unmarked) [Compound 25-14] reads 10000 to 50000 nM; that for `CC(C)N(CCN)C[C@H]1O[C@@H](n2cnc3c(N)ncnc32)[C@H](O)[C@@H]1O` [Compound 26-1], 101 to 1000 nM; that for `CC(=O)c1ccc(NC(=O)CC2NC(N3CCN(C)CC3)=NC2=O)cc1` (centres unmarked) [Compound 26-14], 10000 to 50000 nM.
The figure for `CN(CCN)C[C@H]1O[C@@H](n2cnc3c(N)ncnc32)[C@H](O)[C@@H]1O` [Compound 27-1] is 101 to 1000 nM; for `Cc1ccc(C(=O)CC2NC(N3CCN(C)CC3)=NC2=O)cc1` (centres unmarked) [Compound 27-14] it is 1000 to 10000 nM; for `CC(CN)N(C)C[C@H]1O[C@@H](n2cnc3c(N)ncnc32)[C@H](O)[C@@H]1O` (some centres unmarked) [Compound 28-1] it is 101 to 1000 nM.
The figure for `Cc1ccc(C(=O)CC2NC(N3CCN(Cc4ccccc4)CC3)=NC2=O)cc1` (centres unmarked) [Compound 28-14] is 1000 to 10000 nM.
As for `NCCNC[C@H]1O[C@@H](n2cnc3c(N)ncnc32)[C@H](O)[C@@H]1O` [Compound 29-1], the IC50 lay in the range of 101 to 1000 nM.
The result for `Cc1ccc(C(=O)CC2NC(N3CCc4ccccc4C3)=NC2=O)cc1` (centres unmarked) [Compound 29-14] reads 101 to 1000 nM; that for `NCCCN(CCN)C[C@H]1O[C@@H](n2cnc3c(N)ncnc32)[C@H](O)[C@@H]1O` [Compound 30-1], less than 100 nM; that for `Cc1ccc(C(=O)CC2NC(N3CCN(c4ccccc4F)CC3)=NC2=O)cc1` (centres unmarked) [Compound 30-14], 1000 to 10000 nM.
The figure for `NCCN(CCCC(=O)O)C[C@H]1O[C@@H](n2cnc3c(N)ncnc32)[C@H](O)[C@@H]1O` [Compound 31-1] is less than 100 nM; for `Cc1ccc(C(=O)CC2NC(N3CCN(c4cccc(F)c4)CC3)=NC2=O)cc1` (centres unmarked) [Compound 31-14] it is 1000 to 10000 nM.
On to `CN(CCC[C@@H](N)C(=O)O)C[C@H]1O[C@@H](n2cnc3c(N)ncnc32)[C@H](O)[C@@H]1O` [Compound 32-1], for which the IC50 is 101 to 1000 nM.
`Cc1ccc(C(=O)CC2NC(N3CCN(c4ccc(F)cc4)CC3)=NC2=O)cc1` (centres unmarked) [Compound 32-14]: the concentration for half-maximal inhibition (IC50) was 1000 to 10000 nM.
The figure for `CC(CCCN(CCN)C[C@H]1O[C@@H](n2cnc3c(N)ncnc32)[C@H](O)[C@@H]1O)C(=O)O` (some centres unmarked) [Compound 33-1] is less than 100 nM.
The figure for `Cc1ccc(C(=O)CC2NC(N3CCN(c4ccccn4)CC3)=NC2=O)cc1` (centres unmarked) [Compound 33-14] is 1000 to 10000 nM; for `NCCN(CCCCC(=O)O)C[C@H]1O[C@@H](n2cnc3c(N)ncnc32)[C@H](O)[C@@H]1O` [Compound 34-1] it is less than 100 nM; for `Cc1ccc(C(=O)CC2NC(N3CCN(c4ccncc4)CC3)=NC2=O)cc1` (centres unmarked) [Compound 34-14] it is 10000 to 50000 nM.
The figure for `NCCN(CCC[C@H](N)CO)C[C@H]1O[C@@H](n2cnc3c(N)ncnc32)[C@H](O)[C@@H]1O` [Compound 35-1] is 101 to 1000 nM; for `Cc1ccc(C(=O)CC2NC(N3CCN(Cc4ccc(F)cc4)CC3)=NC2=O)cc1` (centres unmarked) [Compound 35-14] it is 1000 to 10000 nM.
As for `Cc1ccc(C(=O)CC2NC(N3Cc4ccccc4C3)=NC2=O)cc1` (centres unmarked) [Compound 36-14], the IC50 lay in the range of 1000 to 10000 nM.
Turning to `CN(C)CCN(C)C[C@H]1O[C@@H](n2cnc3c(N)ncnc32)[C@H](O)[C@@H]1O` [Compound 37-1], the IC50 lay within 101 to 1000 nM.
`O=C(CC1NC(N2CCN(c3ccccc3)CC2)=NC1=O)c1ccccc1` (centres unmarked) [Compound 37-14]: the IC50 lay within 101 to 1000 nM.
The figure for `CCN(CC)CCN(C)C[C@H]1O[C@@H](n2cnc3c(N)ncnc32)[C@H](O)[C@@H]1O` [Compound 38-1] is 101 to 1000 nM; for `COc1ccc(C(=O)CC2NC(N3CCN(c4ccccc4)CC3)=NC2=O)cc1` (centres unmarked) [Compound 38-14] it is 1000 to 10000 nM.
The result for `CN1CCC(N(C)CCN(C)C[C@H]2O[C@@H](n3cnc4c(N)ncnc43)[C@H](O)[C@@H]2O)C1` (some centres unmarked) [Compound 39-1] reads 101 to 1000 nM.

The record behind these values is patent US20170198006A1, “PRMT5 INHIBITORS AND USES THEREOF” (Epizyme, Inc., priority 2014, published 2017).
